Reference: ChEMBL document CHEMBL4619774 (J Med Chem, 2020)
In brackets after ≈: the same amount, converted by molar mass.

Target: Plasma kallikrein (Homo sapiens, UniProt P03952)
Test: not given
Format: single protein
Conditions: not given

Sequence of Plasma kallikrein (P03952 20-390 limits assumed): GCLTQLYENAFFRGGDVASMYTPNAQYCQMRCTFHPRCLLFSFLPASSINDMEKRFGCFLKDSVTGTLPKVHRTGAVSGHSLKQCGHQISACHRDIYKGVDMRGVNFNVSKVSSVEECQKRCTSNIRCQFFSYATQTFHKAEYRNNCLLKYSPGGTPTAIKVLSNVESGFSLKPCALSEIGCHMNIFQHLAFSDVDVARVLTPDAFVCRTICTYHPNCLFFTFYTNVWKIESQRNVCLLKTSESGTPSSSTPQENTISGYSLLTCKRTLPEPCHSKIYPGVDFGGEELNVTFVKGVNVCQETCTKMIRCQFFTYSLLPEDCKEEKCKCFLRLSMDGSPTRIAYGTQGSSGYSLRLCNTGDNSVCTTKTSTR
Sequence of Plasma kallikrein (P03952 391-638 limits assumed): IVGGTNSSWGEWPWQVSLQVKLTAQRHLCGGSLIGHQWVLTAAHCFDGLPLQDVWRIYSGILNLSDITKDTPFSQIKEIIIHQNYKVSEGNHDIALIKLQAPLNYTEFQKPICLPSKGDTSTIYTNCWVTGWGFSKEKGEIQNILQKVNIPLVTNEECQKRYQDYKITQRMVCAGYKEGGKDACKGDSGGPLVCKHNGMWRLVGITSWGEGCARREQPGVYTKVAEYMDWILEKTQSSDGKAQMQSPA

IC50 [nM]	SMILES
25	CC(C)c1cc(CCOc2ccccc2C(=O)O)cc(-c2ccc3c(c2)[C@H](N)CO3)c1
16	CC(C)c1cc(-c2ccc3c(c2)[C@H](N)CO3)cc(C(O)Cn2ccc3cccc(C(=O)O)c32)c1 (mixture of isomers)
9	COc1cccc(C(=O)O)c1OCCc1cc(-c2ccc3c(c2)[C@H](N)CO3)cc(C(C)C)c1
2	CC(C)c1cc(-c2ccc3c(c2)[C@H](N)CO3)cc(C(O)CN2CCc3cccc(C(=O)O)c32)c1 (mixture of isomers)
1300	NC1COc2ccc(-c3cccc(COc4ccccc4CC(=O)O)c3)cc21 (racemic)
1200	NC1COc2ccc(C(=O)N3C[C@@H](c4ccccc4)C[C@H]3C(=O)Nc3cccc(Cl)c3)cc21 (mixture of isomers)
11	CC(C)(C(N)=O)c1cc(COc2ccccc2CC(=O)O)cc(-c2ccc3c(c2)[C@H](N)CO3)c1
3100	NCc1cccc(-c2cccc(COc3ccccc3CC(=O)O)c2)c1

Target: T1, Coagulation factor VII (Homo sapiens, UniProt P08709)
T1 sequence (P08709 whole entry): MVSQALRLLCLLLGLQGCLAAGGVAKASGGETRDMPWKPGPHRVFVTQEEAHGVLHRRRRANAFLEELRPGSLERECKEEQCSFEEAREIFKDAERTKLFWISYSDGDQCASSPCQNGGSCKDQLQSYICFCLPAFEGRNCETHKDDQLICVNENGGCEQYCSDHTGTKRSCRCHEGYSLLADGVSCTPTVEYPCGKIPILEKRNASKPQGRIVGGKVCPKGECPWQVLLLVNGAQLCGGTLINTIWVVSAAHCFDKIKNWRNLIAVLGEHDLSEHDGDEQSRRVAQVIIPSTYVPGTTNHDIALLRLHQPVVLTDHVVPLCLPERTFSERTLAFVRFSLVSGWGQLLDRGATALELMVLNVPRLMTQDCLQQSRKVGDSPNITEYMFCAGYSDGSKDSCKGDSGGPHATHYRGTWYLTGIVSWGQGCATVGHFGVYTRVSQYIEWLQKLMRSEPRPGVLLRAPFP
Test: not given
Format: single protein
Conditions: not given

IC50 [nM]	SMILES
3270	CC(C)c1cc(CCOc2ccccc2C(=O)O)cc(-c2ccc3c(c2)[C@H](N)CO3)c1
16700	CC(C)c1cc(-c2ccc3c(c2)[C@H](N)CO3)cc(C(O)Cn2ccc3cccc(C(=O)O)c32)c1 (mixture of isomers)
28300	COc1cccc(C(=O)O)c1OCCc1cc(-c2ccc3c(c2)[C@H](N)CO3)cc(C(C)C)c1
8750	CC(C)c1cc(-c2ccc3c(c2)[C@H](N)CO3)cc(C(O)CN2CCc3cccc(C(=O)O)c32)c1 (mixture of isomers)
1400	NCc1cccc(-c2cccc(COc3ccccc3CC(=O)O)c2)c1

Organism: Homo sapiens
Test: Selectivity ratio of IC50 for inhibition of human complement FD to IC50 for inhibition of human F11a
Conditions: not given

Ratio IC50	SMILES
30000	CC(C)c1cc(-c2ccc3c(c2)[C@H](N)CO3)cc(C(O)CN2CCc3cccc(C(=O)O)c32)c1 (mixture of isomers)
80	CC(C)(C(N)=O)c1cc(COc2ccccc2CC(=O)O)cc(-c2ccc3c(c2)[C@H](N)CO3)c1

Target: Prothrombin (Homo sapiens, UniProt P00734)
Test: not given
Format: single protein
Conditions: not given

IC50 [nM]	SMILES
50	CC(C)c1cc(CCOc2ccccc2C(=O)O)cc(-c2ccc3c(c2)[C@H](N)CO3)c1
7210	CC(C)c1cc(-c2ccc3c(c2)[C@H](N)CO3)cc(C(O)Cn2ccc3cccc(C(=O)O)c32)c1 (mixture of isomers)
9090	COc1cccc(C(=O)O)c1OCCc1cc(-c2ccc3c(c2)[C@H](N)CO3)cc(C(C)C)c1
6140	CC(C)c1cc(-c2ccc3c(c2)[C@H](N)CO3)cc(C(O)CN2CCc3cccc(C(=O)O)c32)c1 (mixture of isomers)

Target: Complement factor D (Homo sapiens, UniProt P00746)
Sequence (P00746 whole entry): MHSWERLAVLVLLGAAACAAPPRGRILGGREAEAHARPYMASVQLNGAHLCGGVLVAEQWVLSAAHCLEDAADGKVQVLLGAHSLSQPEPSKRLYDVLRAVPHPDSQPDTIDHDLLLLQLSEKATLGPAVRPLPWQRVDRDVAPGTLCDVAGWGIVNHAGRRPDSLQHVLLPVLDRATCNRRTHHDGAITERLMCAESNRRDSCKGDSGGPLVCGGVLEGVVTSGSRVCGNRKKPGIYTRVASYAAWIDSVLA
Test: not given
Format: single protein
Conditions: not given

IC50 [nM]	SMILES
1320	CC(C)c1cc(CCOc2ccccc2C(=O)O)cc(-c2ccc3c(c2)[C@H](N)CO3)c1
8920	CC(C)c1cc(-c2ccc3c(c2)[C@H](N)CO3)cc(C(O)Cn2ccc3cccc(C(=O)O)c32)c1 (mixture of isomers)
17500	COc1cccc(C(=O)O)c1OCCc1cc(-c2ccc3c(c2)[C@H](N)CO3)cc(C(C)C)c1
73600	CC(C)c1cc(-c2ccc3c(c2)[C@H](N)CO3)cc(C(O)CN2CCc3cccc(C(=O)O)c32)c1 (mixture of isomers)
340	NC1COc2ccc(-c3cccc(COc4ccccc4CC(=O)O)c3)cc21 (racemic)
320	CC(C)(C(N)=O)c1cc(COc2ccccc2CC(=O)O)cc(-c2ccc3c(c2)[C@H](N)CO3)c1
800	O=C(O)Cc1ccccc1OCc1cccc(-c2ccc3c(c2)CNCC3)c1

Target: Urokinase-type plasminogen activator (Homo sapiens, UniProt P00749)
Test: not given
Format: single protein
Conditions: not given

IC50 [nM]	SMILES
20	CC(C)c1cc(CCOc2ccccc2C(=O)O)cc(-c2ccc3c(c2)[C@H](N)CO3)c1
1420	CC(C)c1cc(-c2ccc3c(c2)[C@H](N)CO3)cc(C(O)Cn2ccc3cccc(C(=O)O)c32)c1 (mixture of isomers)
400	COc1cccc(C(=O)O)c1OCCc1cc(-c2ccc3c(c2)[C@H](N)CO3)cc(C(C)C)c1
250	CC(C)c1cc(-c2ccc3c(c2)[C@H](N)CO3)cc(C(O)CN2CCc3cccc(C(=O)O)c32)c1 (mixture of isomers)

System: not listed separately
Test: Lipophilicity, log D of compound at pH 6.8
Format: physicochemical
Conditions: buffer

logD	SMILES
1.91	NCc1cccc(-c2cccc(COc3ccccc3CC(=O)O)c2)c1

System: not given
Test: not given
Conditions: human, caco-2; BLD = below limit of detection

Papp	SMILES
Bld	CC(C)(C(N)=O)c1cc(COc2ccccc2CC(=O)O)cc(-c2ccc3c(c2)[C@H](N)CO3)c1

Target: T2, Coagulation factor XI (Homo sapiens, UniProt P03951)
T2 sequence (P03951 19-387 limits assumed): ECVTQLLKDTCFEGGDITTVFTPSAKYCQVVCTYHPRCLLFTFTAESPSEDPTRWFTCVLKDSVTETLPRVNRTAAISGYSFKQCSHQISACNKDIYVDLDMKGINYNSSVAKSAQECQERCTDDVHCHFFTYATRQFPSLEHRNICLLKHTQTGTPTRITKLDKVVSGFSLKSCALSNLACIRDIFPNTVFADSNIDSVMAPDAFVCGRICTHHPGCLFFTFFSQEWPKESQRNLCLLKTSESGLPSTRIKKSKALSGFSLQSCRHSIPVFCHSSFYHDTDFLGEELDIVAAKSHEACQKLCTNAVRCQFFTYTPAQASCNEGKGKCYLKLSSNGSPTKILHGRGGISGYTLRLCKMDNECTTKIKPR
T2 sequence (P03951 388-625 limits assumed): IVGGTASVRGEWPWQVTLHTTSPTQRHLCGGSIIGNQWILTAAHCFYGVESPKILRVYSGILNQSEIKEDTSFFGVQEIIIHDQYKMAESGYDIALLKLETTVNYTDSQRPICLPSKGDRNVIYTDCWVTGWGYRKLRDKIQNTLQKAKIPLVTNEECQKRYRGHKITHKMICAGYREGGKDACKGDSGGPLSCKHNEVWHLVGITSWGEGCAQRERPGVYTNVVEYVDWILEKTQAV
Test: Inhibition of human F11a using D-Leu-Pro-Arg*Rh110-D-Pro as substrate preincubated for 60 mins followed by substrate addition and measured after 60 mins by fluorescence assay
Conditions: not given

IC50 [nM]	SMILES
12	CC(C)c1cc(CCOc2ccccc2C(=O)O)cc(-c2ccc3c(c2)[C@H](N)CO3)c1
< 0.7	CC(C)c1cc(-c2ccc3c(c2)[C@H](N)CO3)cc(C(O)Cn2ccc3cccc(C(=O)O)c32)c1 (mixture of isomers)
3	COc1cccc(C(=O)O)c1OCCc1cc(-c2ccc3c(c2)[C@H](N)CO3)cc(C(C)C)c1
2	CC(C)c1cc(-c2ccc3c(c2)[C@H](N)CO3)cc(C(O)CN2CCc3cccc(C(=O)O)c32)c1 (mixture of isomers)
200	NC1COc2ccc(-c3cccc(COc4ccccc4CC(=O)O)c3)cc21 (racemic)
970	NC1COc2ccc(C(=O)N3C[C@@H](c4ccccc4)C[C@H]3C(=O)Nc3cccc(Cl)c3)cc21 (mixture of isomers)
9	CC(C)(C(N)=O)c1cc(COc2ccccc2CC(=O)O)cc(-c2ccc3c(c2)[C@H](N)CO3)c1
2520	CC(C)c1cc(CCNc2ccccc2C(=O)O)cc(-c2ccc3c(c2)[C@H](N)CO3)c1
400	O=C(O)Cc1ccccc1OCc1cccc(-c2ccc3c(c2)CNCC3)c1

System: not listed separately
Test: in vitro
Conditions: human, Caco-2

Papp B→A [×10⁻⁶ cm/s]	SMILES
4	CC(C)(C(N)=O)c1cc(COc2ccccc2CC(=O)O)cc(-c2ccc3c(c2)[C@H](N)CO3)c1

Target: Tissue-type plasminogen activator (Homo sapiens, UniProt P00750)
Sequence (P00750 whole entry): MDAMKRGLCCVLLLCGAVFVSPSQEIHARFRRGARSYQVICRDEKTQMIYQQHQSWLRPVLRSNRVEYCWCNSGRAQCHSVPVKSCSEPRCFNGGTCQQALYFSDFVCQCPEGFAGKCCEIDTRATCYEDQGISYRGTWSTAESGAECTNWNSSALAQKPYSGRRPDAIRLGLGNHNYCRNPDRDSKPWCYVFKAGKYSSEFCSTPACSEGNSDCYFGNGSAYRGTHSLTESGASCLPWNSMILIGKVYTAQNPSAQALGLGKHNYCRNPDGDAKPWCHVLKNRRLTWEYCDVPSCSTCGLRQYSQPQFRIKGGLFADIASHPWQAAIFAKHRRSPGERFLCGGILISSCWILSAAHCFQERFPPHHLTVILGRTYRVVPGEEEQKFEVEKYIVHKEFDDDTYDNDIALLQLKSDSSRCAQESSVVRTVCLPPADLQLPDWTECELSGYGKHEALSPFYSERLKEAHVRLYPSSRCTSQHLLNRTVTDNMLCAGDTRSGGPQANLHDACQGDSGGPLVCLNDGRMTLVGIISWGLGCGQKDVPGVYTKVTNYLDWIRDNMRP
Test: not given
Format: single protein
Conditions: not given

IC50 [nM]	SMILES
90	CC(C)c1cc(CCOc2ccccc2C(=O)O)cc(-c2ccc3c(c2)[C@H](N)CO3)c1
3700	CC(C)c1cc(-c2ccc3c(c2)[C@H](N)CO3)cc(C(O)Cn2ccc3cccc(C(=O)O)c32)c1 (mixture of isomers)
2200	COc1cccc(C(=O)O)c1OCCc1cc(-c2ccc3c(c2)[C@H](N)CO3)cc(C(C)C)c1
490	CC(C)c1cc(-c2ccc3c(c2)[C@H](N)CO3)cc(C(O)CN2CCc3cccc(C(=O)O)c32)c1 (mixture of isomers)

System: not listed separately
Test: Dose normalized AUC in C57BL/6 mouse at 1 mg/kg, iv by LC-MS/MS analysis
Format: ADME, organism-based
Conditions: in vivo

AUC/dose [nM·h]	SMILES
3284	NCc1cccc(-c2cccc(COc3ccccc3CC(=O)O)c2)c1

System: not listed separately
Test: physchem
Conditions: aqueous buffer, pH 6.8

solubility thermodynamic [µM]	SMILES
780 (≈ 359 µg/mL)	CC(C)(C(N)=O)c1cc(COc2ccccc2CC(=O)O)cc(-c2ccc3c(c2)[C@H](N)CO3)c1

System: not listed separately
Test: Volume of distribution at steady state in C57BL/6 mouse at 1 mg/kg, iv bolus injection or 10 mg/kg, po by LC-MS/MS analysis
Format: ADME, organism-based
Conditions: in vivo, read-out: Vdss

Vd [L/kg]	SMILES
0.7	NCc1cccc(-c2cccc(COc3ccccc3CC(=O)O)c2)c1

Target: Plasminogen (Homo sapiens, UniProt P00747)
Sequence (P00747 97-580 limits assumed): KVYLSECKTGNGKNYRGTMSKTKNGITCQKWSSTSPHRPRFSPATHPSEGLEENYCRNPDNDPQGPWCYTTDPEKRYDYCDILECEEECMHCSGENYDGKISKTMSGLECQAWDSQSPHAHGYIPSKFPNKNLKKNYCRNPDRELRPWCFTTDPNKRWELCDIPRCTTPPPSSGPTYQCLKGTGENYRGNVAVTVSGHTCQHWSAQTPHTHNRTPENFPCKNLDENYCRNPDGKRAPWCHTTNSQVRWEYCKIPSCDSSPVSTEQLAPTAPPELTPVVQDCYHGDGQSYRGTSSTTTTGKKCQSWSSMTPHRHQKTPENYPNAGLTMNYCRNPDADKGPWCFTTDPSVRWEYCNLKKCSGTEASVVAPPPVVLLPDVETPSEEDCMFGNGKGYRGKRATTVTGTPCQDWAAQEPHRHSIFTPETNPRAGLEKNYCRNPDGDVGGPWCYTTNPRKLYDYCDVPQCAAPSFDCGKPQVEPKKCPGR
Sequence (P00747 581-810 limits assumed): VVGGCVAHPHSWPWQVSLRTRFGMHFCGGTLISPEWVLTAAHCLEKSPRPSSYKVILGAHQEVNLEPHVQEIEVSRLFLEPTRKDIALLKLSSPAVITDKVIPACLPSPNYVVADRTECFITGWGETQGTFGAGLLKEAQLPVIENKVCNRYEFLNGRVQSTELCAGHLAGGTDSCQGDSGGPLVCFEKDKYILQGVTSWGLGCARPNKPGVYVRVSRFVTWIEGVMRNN
Test: not given
Format: single protein
Conditions: not given

IC50 [nM]	SMILES
590	CC(C)c1cc(CCOc2ccccc2C(=O)O)cc(-c2ccc3c(c2)[C@H](N)CO3)c1
17400	CC(C)c1cc(-c2ccc3c(c2)[C@H](N)CO3)cc(C(O)Cn2ccc3cccc(C(=O)O)c32)c1 (mixture of isomers)
30800	COc1cccc(C(=O)O)c1OCCc1cc(-c2ccc3c(c2)[C@H](N)CO3)cc(C(C)C)c1
9580	CC(C)c1cc(-c2ccc3c(c2)[C@H](N)CO3)cc(C(O)CN2CCc3cccc(C(=O)O)c32)c1 (mixture of isomers)
2200	NCc1cccc(-c2cccc(COc3ccccc3CC(=O)O)c2)c1

System: not listed separately
Test: Dose normalized Cmax in C57BL/6 mouse at 1 mg/kg, iv bolus injection or 10 mg/kg, po by LC-MS/MS analysis
Format: ADME, organism-based
Conditions: in vivo

Cmax/dose [nM]	SMILES
2591	NCc1cccc(-c2cccc(COc3ccccc3CC(=O)O)c2)c1

System: not listed separately
Test: Terminal half life in C57BL/6 mouse at 1 mg/kg, iv bolus injection or 10 mg/kg, po by LC-MS/MS analysis
Format: ADME, organism-based
Conditions: in vivo, read-out: beta t1/2 (converted)

half-life [h]	SMILES
1.6	NCc1cccc(-c2cccc(COc3ccccc3CC(=O)O)c2)c1

Target: Voltage-gated inwardly rectifying potassium channel KCNH2 (Homo sapiens, UniProt Q12809)
Sequence (Q12809 whole entry): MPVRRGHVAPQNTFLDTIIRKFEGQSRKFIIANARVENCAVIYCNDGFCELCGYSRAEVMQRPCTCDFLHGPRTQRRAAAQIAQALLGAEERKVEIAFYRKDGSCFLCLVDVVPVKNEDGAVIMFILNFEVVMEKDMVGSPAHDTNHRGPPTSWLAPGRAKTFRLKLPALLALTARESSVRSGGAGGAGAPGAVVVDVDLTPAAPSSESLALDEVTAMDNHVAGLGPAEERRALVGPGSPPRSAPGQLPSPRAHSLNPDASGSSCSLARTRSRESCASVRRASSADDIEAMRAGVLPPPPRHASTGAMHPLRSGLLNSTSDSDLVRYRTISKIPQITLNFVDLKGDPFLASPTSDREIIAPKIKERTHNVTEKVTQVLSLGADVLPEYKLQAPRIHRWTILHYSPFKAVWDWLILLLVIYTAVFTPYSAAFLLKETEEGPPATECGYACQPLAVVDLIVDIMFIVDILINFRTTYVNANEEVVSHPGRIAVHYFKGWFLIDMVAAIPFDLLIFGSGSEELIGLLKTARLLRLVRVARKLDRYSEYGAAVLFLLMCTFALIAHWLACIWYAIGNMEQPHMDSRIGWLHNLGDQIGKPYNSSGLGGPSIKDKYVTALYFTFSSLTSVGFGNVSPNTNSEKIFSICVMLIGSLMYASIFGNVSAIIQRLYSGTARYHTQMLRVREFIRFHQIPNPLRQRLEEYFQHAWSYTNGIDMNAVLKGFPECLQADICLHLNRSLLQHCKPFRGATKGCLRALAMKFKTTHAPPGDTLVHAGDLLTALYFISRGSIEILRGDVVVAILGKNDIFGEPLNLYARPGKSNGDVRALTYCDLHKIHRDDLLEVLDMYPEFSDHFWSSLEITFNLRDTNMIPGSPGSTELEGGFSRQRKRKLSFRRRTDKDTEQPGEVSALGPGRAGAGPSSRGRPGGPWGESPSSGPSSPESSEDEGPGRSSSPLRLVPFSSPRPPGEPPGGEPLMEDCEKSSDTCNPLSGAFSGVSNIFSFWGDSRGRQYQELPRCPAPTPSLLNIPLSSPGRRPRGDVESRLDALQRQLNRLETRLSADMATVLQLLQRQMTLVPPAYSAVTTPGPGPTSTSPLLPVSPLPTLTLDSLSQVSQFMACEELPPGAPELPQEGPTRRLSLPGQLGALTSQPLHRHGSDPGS
Test: not given
Conditions: not given

SMILES	IC50 [nM]
NCc1cccc(-c2cccc(COc3ccccc3CC(=O)O)c2)c1	> 30000

Target: Coagulation factor X (Homo sapiens, UniProt P00742)
Sequence (P00742 41-179 limits assumed): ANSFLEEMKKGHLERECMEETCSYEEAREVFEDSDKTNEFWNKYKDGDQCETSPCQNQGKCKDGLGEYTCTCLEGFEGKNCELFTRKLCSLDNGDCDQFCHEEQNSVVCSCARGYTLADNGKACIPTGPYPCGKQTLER
Sequence (P00742 235-488 limits assumed): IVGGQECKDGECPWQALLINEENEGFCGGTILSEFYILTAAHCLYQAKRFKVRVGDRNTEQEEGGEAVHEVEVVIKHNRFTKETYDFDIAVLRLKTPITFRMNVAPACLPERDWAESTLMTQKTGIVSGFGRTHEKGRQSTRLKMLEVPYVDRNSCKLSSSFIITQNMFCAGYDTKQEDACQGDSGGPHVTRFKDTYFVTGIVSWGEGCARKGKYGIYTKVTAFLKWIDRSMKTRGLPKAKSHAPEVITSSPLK
Test: not given
Format: single protein
Conditions: not given

IC50 [nM]	SMILES
240	CC(C)c1cc(CCOc2ccccc2C(=O)O)cc(-c2ccc3c(c2)[C@H](N)CO3)c1
11200	CC(C)c1cc(-c2ccc3c(c2)[C@H](N)CO3)cc(C(O)Cn2ccc3cccc(C(=O)O)c32)c1 (mixture of isomers)
6210	COc1cccc(C(=O)O)c1OCCc1cc(-c2ccc3c(c2)[C@H](N)CO3)cc(C(C)C)c1
1710	CC(C)c1cc(-c2ccc3c(c2)[C@H](N)CO3)cc(C(O)CN2CCc3cccc(C(=O)O)c32)c1 (mixture of isomers)

Target: T2, Coagulation factor XI
Test: Inhibition of […] human plasma F11a catalytic domain expressed in Escherichia coli strain BL21(DE3) using D-Leu-Pro-Arg*Rh110-D-Pro as substrate preincubated for 60 mins followed by substrate addition and measured after 60 mins by fluorescence assay
Conditions: not given

IC50 [nM]	SMILES
1190	CC(C)c1cc(CCOc2ccccc2C(=O)O)cc(-c2ccc3c(c2)[C@H](N)CO3)c1
45	CC(C)c1cc(-c2ccc3c(c2)[C@H](N)CO3)cc(C(O)Cn2ccc3cccc(C(=O)O)c32)c1 (mixture of isomers)
240	COc1cccc(C(=O)O)c1OCCc1cc(-c2ccc3c(c2)[C@H](N)CO3)cc(C(C)C)c1
170	CC(C)c1cc(-c2ccc3c(c2)[C@H](N)CO3)cc(C(O)CN2CCc3cccc(C(=O)O)c32)c1 (mixture of isomers)
67	CC(C)(C(N)=O)c1cc(COc2ccccc2CC(=O)O)cc(-c2ccc3c(c2)[C@H](N)CO3)c1

Target: Coagulation factor IX (Homo sapiens, UniProt P00740)
Sequence (P00740 47-191 limits assumed): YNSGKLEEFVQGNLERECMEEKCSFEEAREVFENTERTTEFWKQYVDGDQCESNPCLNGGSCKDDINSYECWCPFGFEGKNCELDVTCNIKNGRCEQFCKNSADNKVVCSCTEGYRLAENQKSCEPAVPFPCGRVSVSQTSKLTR
Sequence (P00740 227-461 limits assumed): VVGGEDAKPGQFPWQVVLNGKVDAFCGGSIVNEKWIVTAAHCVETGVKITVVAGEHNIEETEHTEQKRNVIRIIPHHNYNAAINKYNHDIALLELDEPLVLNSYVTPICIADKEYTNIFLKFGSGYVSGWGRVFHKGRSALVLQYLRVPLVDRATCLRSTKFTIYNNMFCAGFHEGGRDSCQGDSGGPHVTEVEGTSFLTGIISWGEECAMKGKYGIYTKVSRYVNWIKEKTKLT
Test: not given
Format: single protein
Conditions: not given

IC50 [nM]	SMILES
40	CC(C)c1cc(CCOc2ccccc2C(=O)O)cc(-c2ccc3c(c2)[C@H](N)CO3)c1
13400	CC(C)c1cc(-c2ccc3c(c2)[C@H](N)CO3)cc(C(O)Cn2ccc3cccc(C(=O)O)c32)c1 (mixture of isomers)
10200	COc1cccc(C(=O)O)c1OCCc1cc(-c2ccc3c(c2)[C@H](N)CO3)cc(C(C)C)c1
7860	CC(C)c1cc(-c2ccc3c(c2)[C@H](N)CO3)cc(C(O)CN2CCc3cccc(C(=O)O)c32)c1 (mixture of isomers)
